Reference: patent publication US6562371B1, “Liposomes” (Terumo Kabushiki Kaisha, priority 1998, dated 2003)

System: Anti-Thy-1 antibody nephritis rats
Experiment: Pharmacological effect: total protein content in urine
Type: in vivo, rat
Settings: administered once i.v. on the fifth day after anti-Thy-1 antibody, urine collected on the tenth day
Method: Anti-Thy-1 antibody nephritis rats were prepared by intravenously administering an anti-Thy-1 antibody solution through the caudal vein of each CD (SD) male rat. On the fifth day after administration of the anti-Thy-1 antibody, the liposome dispersion liquid obtained in Preparation Example 15 (1 mg as prednisolone phosphate sodium) was administered by intravenous injection. On the tenth day after administration of the anti-Thy-1 antibody, urine was collected to measure the total protein content.
For the sake of comparison, the preparation of Comparative Example 1 (a liposome dispersion liquid having no included drug) or physiological saline was administered by the same method, and urine was collected on the tenth day after administration of the anti-Thy-1 antibody to measure the total protein content.
Also, a prednisolone phosphate sodium solution (1 mg as prednisolone phosphate sodium) which was not made into liposomes was administered once on the fifth day after administration of the anti-Thy-1 antibody, or five times (once a day for 5 days) started on the fifth day after administration of the anti-Thy-1 antibody, and urine was collected on the tenth day after administration of the anti-Thy-1 antibody to measure the total protein content.
Urine was also collected from un-treated normal rat to measure the total protein content.

prednisolone phosphate sodium
effect on excretion of protein into urine (total protein content): no effect was found
